# Results published in ChEMBL document CHEMBL1287771, “Novel hybrids of 15-membered 8a- and 9a-azahomoerythromycin A ketolides and quinolones as potent antibacterials” (2010).
# Key:
# Assay type in all cases: functional
# Staphylococcus aureus [1] = assay: Antibacterial activity against efflux-resistant Staphylococcus aureus B0331 by agar microdilution method
# Staphylococcus aureus [2] = assay: Antibacterial activity against erythromycin A-susceptible Staphylococcus aureus B0329 by agar microdilution method
# Staphylococcus aureus [3] = assay: Antibacterial activity against inducible macrolide-lincosamide-streptogramin B-resistant Staphylococcus aureus B0538 by agar microdilution method
# Moraxella catarrhalis = assay: Antibacterial activity against Moraxella catarrhalis B0324 by agar microdilution method
# Streptococcus pyogenes [4] = assay: Antibacterial activity against erythromycin A-susceptible Streptococcus pyogenes B0542 by agar microdilution method
# Streptococcus pneumoniae [5] = assay: Antibacterial activity against constitutive macrolide-lincosamide-streptogramin B-resistant Streptococcus pneumoniae B0627 by agar microdilution method
# Haemophilus influenzae = assay: Antibacterial activity against Haemophilus influenzae B0529 by agar microdilution method
# Streptococcus pyogenes [6] = assay: Antibacterial activity against constitutive macrolide-lincosamide-streptogramin B-resistant Streptococcus pyogenes B0544 by agar microdilution method
# Streptococcus pyogenes [7] = assay: Antibacterial activity against inducible macrolide-lincosamide-streptogramin B-resistant Streptococcus pyogenes B0543 by agar microdilution method
# Streptococcus pyogenes [8] = assay: Antibacterial activity against efflux-resistant Streptococcus pyogenes B0545 by agar microdilution method
# Staphylococcus aureus [9] = assay: Antibacterial activity against constitutive macrolide-lincosamide-streptogramin B-resistant Staphylococcus aureus B0330 by agar microdilution method
# Streptococcus pneumoniae [10] = assay: Antibacterial activity against efflux-resistant Streptococcus pneumoniae B0326 by agar microdilution method
# Streptococcus pneumoniae [11] = assay: Antibacterial activity against erythromycin A-susceptible Streptococcus pneumoniae B0541 by agar microdilution method
smiles,measurement,setting,value
CC[C@H]1OC(=O)[C@H](C)C(=O)[C@H](C)[C@@H](O[C@@H]2O[C@H](C)C[C@H](N(C)C)[C@H]2O)[C@](C)(OC[C@H](O)CN2CCN(c3ccc4c(c3F)c(=O)c(C(=O)O)cn4C3CC3)CC2)C[C@@H](C)NC(=O)[C@H](C)[C@H](O)[C@@]1(C)O,MIC,Staphylococcus aureus [1],0.5 µg/mL
same,MIC,Staphylococcus aureus [2],≤ 0.125 µg/mL
same,MIC,Staphylococcus aureus [3],0.25 µg/mL
same,MIC,Moraxella catarrhalis,0.5 µg/mL
same,MIC,Streptococcus pyogenes [4],≤ 0.125 µg/mL
same,MIC,Streptococcus pneumoniae [5],0.5 µg/mL
same,MIC,Haemophilus influenzae,0.25 µg/mL
same,MIC,Streptococcus pyogenes [6],4 µg/mL
same,MIC,Streptococcus pyogenes [7],0.5 µg/mL
same,MIC,Streptococcus pyogenes [8],0.5 µg/mL
same,MIC,Staphylococcus aureus [9],8 µg/mL
same,MIC,Streptococcus pneumoniae [10],0.25 µg/mL
same,MIC,Streptococcus pneumoniae [11],≤ 0.125 µg/mL
CC[C@H]1OC(=O)[C@H](C)C(=O)[C@H](C)[C@@H](O[C@@H]2O[C@H](C)C[C@H](N(C)C)[C@H]2O)[C@](C)(OC/C=C/c2cnc3ccccc3c2)C[C@@H](C)C(=O)N[C@H](C)[C@H](O)[C@@]1(C)O,MIC,Staphylococcus aureus [1],16 µg/mL
same,MIC,Staphylococcus aureus [2],8 µg/mL
same,MIC,Staphylococcus aureus [3],16 µg/mL
same,MIC,Moraxella catarrhalis,2 µg/mL
same,MIC,Streptococcus pyogenes [4],0.5 µg/mL
same,MIC,Streptococcus pneumoniae [5],64 µg/mL
same,MIC,Haemophilus influenzae,32 µg/mL
same,MIC,Streptococcus pyogenes [6],> 64 µg/mL
same,MIC,Streptococcus pyogenes [7],64 µg/mL
same,MIC,Streptococcus pyogenes [8],4 µg/mL
same,MIC,Staphylococcus aureus [9],> 64 µg/mL
same,MIC,Streptococcus pneumoniae [10],8 µg/mL
same,MIC,Streptococcus pneumoniae [11],2 µg/mL
CC[C@H]1OC(=O)[C@H](C)C(=O)[C@H](C)[C@@H](O[C@@H]2O[C@H](C)C[C@H](N(C)C)[C@H]2O)[C@](C)(OCCCC2CNc3ccccc3C2)C[C@@H](C)NC(=O)[C@H](C)[C@H](O)[C@@]1(C)O (stereo partly specified),MIC,Staphylococcus aureus [1],64 µg/mL
same,MIC,Staphylococcus aureus [2],2 µg/mL
same,MIC,Staphylococcus aureus [3],> 64 µg/mL
same,MIC,Moraxella catarrhalis,1 µg/mL
same,MIC,Streptococcus pyogenes [4],≤ 0.125 µg/mL
same,MIC,Streptococcus pneumoniae [5],64 µg/mL
same,MIC,Haemophilus influenzae,16 µg/mL
same,MIC,Streptococcus pyogenes [6],> 64 µg/mL
same,MIC,Streptococcus pyogenes [7],16 µg/mL
same,MIC,Streptococcus pyogenes [8],8 µg/mL
same,MIC,Staphylococcus aureus [9],64 µg/mL
same,MIC,Streptococcus pneumoniae [10],8 µg/mL
same,MIC,Streptococcus pneumoniae [11],≤ 0.125 µg/mL
CC[C@H]1OC(=O)[C@H](C)C(=O)[C@H](C)[C@@H](O[C@@H]2O[C@H](C)C[C@H](N(C)C)[C@H]2O)[C@](C)(OCC(O)CN2CCN(c3ccc4c(c3)c(=O)c(C(=O)O)cn4C3CC3)CC2)C[C@@H](C)NC(=O)[C@H](C)[C@H](O)[C@@]1(C)O (stereo partly specified),MIC,Staphylococcus aureus [1],2 µg/mL
same,MIC,Staphylococcus aureus [2],0.25 µg/mL
same,MIC,Staphylococcus aureus [3],0.25 µg/mL
same,MIC,Moraxella catarrhalis,1 µg/mL
same,MIC,Streptococcus pyogenes [4],≤ 0.125 µg/mL
same,MIC,Streptococcus pneumoniae [5],1 µg/mL
same,MIC,Haemophilus influenzae,2 µg/mL
same,MIC,Streptococcus pyogenes [6],4 µg/mL
same,MIC,Streptococcus pyogenes [7],0.25 µg/mL
same,MIC,Streptococcus pyogenes [8],2 µg/mL
same,MIC,Staphylococcus aureus [9],> 64 µg/mL
same,MIC,Streptococcus pneumoniae [10],0.5 µg/mL
same,MIC,Streptococcus pneumoniae [11],≤ 0.125 µg/mL
CC[C@H]1OC(=O)[C@H](C)C(=O)[C@H](C)[C@@H](O[C@@H]2O[C@H](C)C[C@H](N(C)C)[C@H]2O)[C@](C)(OCC(O)CNCCNc2ccc3c(c2F)c(=O)c(C(=O)O)cn3C2CC2)C[C@@H](C)NC(=O)[C@H](C)[C@H](O)[C@@]1(C)O (stereo partly specified),MIC,Staphylococcus aureus [1],4 µg/mL
same,MIC,Staphylococcus aureus [2],1 µg/mL
same,MIC,Staphylococcus aureus [3],1 µg/mL
same,MIC,Moraxella catarrhalis,2 µg/mL
same,MIC,Streptococcus pyogenes [4],≤ 0.125 µg/mL
same,MIC,Streptococcus pneumoniae [5],2 µg/mL
same,MIC,Haemophilus influenzae,2 µg/mL
same,MIC,Streptococcus pyogenes [6],8 µg/mL
same,MIC,Streptococcus pyogenes [7],1 µg/mL
same,MIC,Streptococcus pyogenes [8],16 µg/mL
same,MIC,Staphylococcus aureus [9],> 64 µg/mL
same,MIC,Streptococcus pneumoniae [10],2 µg/mL
same,MIC,Streptococcus pneumoniae [11],≤ 0.125 µg/mL
CC[C@H]1OC(=O)[C@H](C)C(=O)[C@H](C)[C@@H](O[C@@H]2O[C@H](C)C[C@H](N(C)C)[C@H]2O)[C@](C)(OC[C@@H](O)CN2CCN(c3ccc4c(c3F)c(=O)c(C(=O)O)cn4C3CC3)CC2)C[C@@H](C)NC(=O)[C@H](C)[C@H](O)[C@@]1(C)O,MIC,Staphylococcus aureus [1],0.25 µg/mL
same,MIC,Staphylococcus aureus [2],≤ 0.125 µg/mL
same,MIC,Staphylococcus aureus [3],0.25 µg/mL
same,MIC,Moraxella catarrhalis,≤ 0.125 µg/mL
same,MIC,Streptococcus pyogenes [4],≤ 0.125 µg/mL
same,MIC,Streptococcus pneumoniae [5],≤ 0.125 µg/mL
same,MIC,Haemophilus influenzae,≤ 0.125 µg/mL
same,MIC,Streptococcus pyogenes [6],2 µg/mL
same,MIC,Streptococcus pyogenes [7],≤ 0.125 µg/mL
same,MIC,Streptococcus pyogenes [8],0.5 µg/mL
same,MIC,Staphylococcus aureus [9],2 µg/mL
same,MIC,Streptococcus pneumoniae [10],≤ 0.125 µg/mL
same,MIC,Streptococcus pneumoniae [11],≤ 0.125 µg/mL
CC[C@H]1OC(=O)[C@H](C)C(=O)[C@H](C)[C@@H](O[C@@H]2O[C@H](C)C[C@H](N(C)C)[C@H]2O)[C@](C)(OCC(O)CN2CCN(c3cc4c(=O)c(C(=O)O)cn(C5CC5)c4cc3Cl)CC2)C[C@@H](C)NC(=O)[C@H](C)[C@H](O)[C@@]1(C)O (stereo partly specified),MIC,Staphylococcus aureus [1],0.25 µg/mL
same,MIC,Staphylococcus aureus [2],1 µg/mL
same,MIC,Staphylococcus aureus [3],1 µg/mL
same,MIC,Moraxella catarrhalis,≤ 0.125 µg/mL
same,MIC,Streptococcus pyogenes [4],≤ 0.125 µg/mL
same,MIC,Streptococcus pneumoniae [5],1 µg/mL
same,MIC,Haemophilus influenzae,1 µg/mL
same,MIC,Streptococcus pyogenes [6],4 µg/mL
same,MIC,Streptococcus pyogenes [7],1 µg/mL
same,MIC,Streptococcus pyogenes [8],0.5 µg/mL
same,MIC,Staphylococcus aureus [9],> 64 µg/mL
same,MIC,Streptococcus pneumoniae [10],0.25 µg/mL
same,MIC,Streptococcus pneumoniae [11],≤ 0.125 µg/mL
CC[C@H]1OC(=O)[C@H](C)C(=O)[C@H](C)[C@@H](O[C@@H]2O[C@H](C)C[C@H](N(C)C)[C@H]2O)[C@](C)(OCC(O)CNCCc2cccnc2)C[C@@H](C)NC(=O)[C@H](C)[C@H](O)[C@@]1(C)O (stereo partly specified),MIC,Staphylococcus aureus [1],4 µg/mL
same,MIC,Staphylococcus aureus [2],4 µg/mL
same,MIC,Staphylococcus aureus [3],8 µg/mL
same,MIC,Moraxella catarrhalis,1 µg/mL
same,MIC,Streptococcus pyogenes [4],0.25 µg/mL
same,MIC,Streptococcus pneumoniae [5],2 µg/mL
same,MIC,Haemophilus influenzae,8 µg/mL
same,MIC,Streptococcus pyogenes [6],32 µg/mL
same,MIC,Streptococcus pyogenes [7],4 µg/mL
same,MIC,Streptococcus pyogenes [8],2 µg/mL
same,MIC,Staphylococcus aureus [9],> 64 µg/mL
same,MIC,Streptococcus pneumoniae [10],8 µg/mL
same,MIC,Streptococcus pneumoniae [11],0.5 µg/mL
CC[C@H]1OC(=O)[C@H](C)C(=O)[C@H](C)[C@@H](O[C@@H]2O[C@H](C)C[C@H](N(C)C)[C@H]2O)[C@](C)(OC/C=C/c2cccc3ccccc23)C[C@@H](C)NC(=O)[C@H](C)[C@H](O)[C@@]1(C)O,MIC,Staphylococcus aureus [1],4 µg/mL
same,MIC,Staphylococcus aureus [2],1 µg/mL
same,MIC,Staphylococcus aureus [3],2 µg/mL
same,MIC,Moraxella catarrhalis,0.25 µg/mL
same,MIC,Streptococcus pyogenes [4],0.25 µg/mL
same,MIC,Streptococcus pneumoniae [5],> 64 µg/mL
same,MIC,Haemophilus influenzae,8 µg/mL
same,MIC,Streptococcus pyogenes [6],> 64 µg/mL
same,MIC,Streptococcus pyogenes [7],4 µg/mL
same,MIC,Streptococcus pyogenes [8],2 µg/mL
same,MIC,Staphylococcus aureus [9],> 64 µg/mL
same,MIC,Streptococcus pneumoniae [10],2 µg/mL
same,MIC,Streptococcus pneumoniae [11],≤ 0.125 µg/mL
CC[C@H]1OC(=O)[C@H](C)C(=O)[C@H](C)[C@@H](O[C@@H]2O[C@H](C)C[C@H](N(C)C)[C@H]2O)[C@](C)(OCC(O)CNCCc2ccccc2)C[C@@H](C)NC(=O)[C@H](C)[C@H](O)[C@@]1(C)O (stereo partly specified),MIC,Staphylococcus aureus [1],8 µg/mL
same,MIC,Staphylococcus aureus [2],4 µg/mL
same,MIC,Staphylococcus aureus [3],16 µg/mL
same,MIC,Moraxella catarrhalis,0.5 µg/mL
same,MIC,Streptococcus pyogenes [4],0.5 µg/mL
same,MIC,Streptococcus pneumoniae [5],8 µg/mL
same,MIC,Haemophilus influenzae,16 µg/mL
same,MIC,Streptococcus pyogenes [6],16 µg/mL
same,MIC,Streptococcus pyogenes [7],1 µg/mL
same,MIC,Streptococcus pyogenes [8],1 µg/mL
same,MIC,Staphylococcus aureus [9],> 64 µg/mL
same,MIC,Streptococcus pneumoniae [10],16 µg/mL
same,MIC,Streptococcus pneumoniae [11],0.25 µg/mL
CC[C@H]1OC(=O)[C@H](C)C(=O)[C@H](C)[C@@H](O[C@@H]2O[C@H](C)C[C@H](N(C)C)[C@H]2O)[C@](C)(OCC(O)CNCC(C)C)C[C@@H](C)NC(=O)[C@H](C)[C@H](O)[C@@]1(C)O (stereo partly specified),MIC,Staphylococcus aureus [1],64 µg/mL
same,MIC,Staphylococcus aureus [2],64 µg/mL
same,MIC,Staphylococcus aureus [3],64 µg/mL
same,MIC,Moraxella catarrhalis,16 µg/mL
same,MIC,Streptococcus pyogenes [4],8 µg/mL
same,MIC,Streptococcus pneumoniae [5],> 64 µg/mL
same,MIC,Haemophilus influenzae,> 64 µg/mL
same,MIC,Streptococcus pyogenes [6],> 64 µg/mL
same,MIC,Streptococcus pyogenes [7],64 µg/mL
same,MIC,Streptococcus pyogenes [8],8 µg/mL
same,MIC,Staphylococcus aureus [9],> 64 µg/mL
same,MIC,Streptococcus pneumoniae [10],64 µg/mL
same,MIC,Streptococcus pneumoniae [11],16 µg/mL
CC[C@H]1OC(=O)[C@H](C)C(=O)[C@H](C)[C@@H](O[C@@H]2O[C@H](C)C[C@H](N(C)C)[C@H]2O)[C@](C)(OC/C=C/c2cnc3ccccc3c2)C[C@@H](C)NC(=O)[C@H](C)[C@@H]2OC(=O)O[C@]12C,MIC,Staphylococcus aureus [1],0.25 µg/mL
same,MIC,Staphylococcus aureus [2],≤ 0.125 µg/mL
same,MIC,Staphylococcus aureus [3],0.25 µg/mL
same,MIC,Moraxella catarrhalis,0.25 µg/mL
same,MIC,Streptococcus pyogenes [4],≤ 0.125 µg/mL
same,MIC,Streptococcus pneumoniae [5],4 µg/mL
same,MIC,Haemophilus influenzae,1 µg/mL
same,MIC,Streptococcus pyogenes [6],8 µg/mL
same,MIC,Streptococcus pyogenes [7],≤ 0.125 µg/mL
same,MIC,Streptococcus pyogenes [8],0.5 µg/mL
same,MIC,Staphylococcus aureus [9],64 µg/mL
same,MIC,Streptococcus pneumoniae [10],≤ 0.125 µg/mL
same,MIC,Streptococcus pneumoniae [11],0.06 µg/mL
